Measurements as given in ChEMBL document CHEMBL1208667, “Permanent positive charge strongly influences DNA/RNA binding and antiproliferative activity of urea-phenanthridinium conjugates” (Eur J Med Chem, 2010).
Activity calls are given as the source filed them. No cut-off for these calls is given here.

Experiments:
Calf thymus DNA [1] = experiment: Binding affinity to calf thymus DNA in citric acid buffer at pH 5 by fluorescence titration assay relative to control; format: nucleic-acid assay; settings: Bos taurus
Nucleic Acid [2] = experiment: Binding affinity to poly G-poly C RNA in sodium cacodylate buffer at pH 7 by fluorescence titration assay; format: nucleic-acid assay
Calf thymus DNA [3] = experiment: Binding affinity to calf thymus DNA in citric acid buffer at pH 5 by UV-v titration assay; format: nucleic-acid assay; settings: Bos taurus
Nucleic Acid [4] = experiment: Binding affinity to poly A-poly U RNA in citric acid buffer at pH 5 by UV-v titration assay; format: nucleic-acid assay
Nucleic Acid [5] = experiment: Binding affinity to poly G-poly C RNA in citric acid buffer at pH 5 by UV-v titration assay; format: nucleic-acid assay
Calf thymus DNA [6] = experiment: Binding affinity to calf thymus DNA assessed as change in melting temperature at compound to DNA molar ratio of 0.2 at pH 5 by thermal denaturation assay; format: nucleic-acid assay; settings: Bos taurus
Calf thymus DNA [7] = experiment: Binding affinity to calf thymus DNA assessed as change in melting temperature at compound to DNA molar ratio of 0.3 at pH 5 by thermal denaturation assay; format: nucleic-acid assay; settings: Bos taurus
Calf thymus DNA [8] = experiment: Binding affinity to calf thymus DNA assessed as change in melting temperature at compound to DNA molar ratio of 0.2 at pH 7 by thermal denaturation assay; format: nucleic-acid assay; settings: Bos taurus
Nucleic Acid [9] = experiment: Binding affinity to poly A-poly U RNA assessed as change in melting temperature at compound to DNA molar ratio of 0.3 at pH 7 by thermal denaturation assay; format: nucleic-acid assay
Nucleic Acid [10] = experiment: Binding affinity to poly A-poly U RNA at compound to DNA molar ratio of 0.1 to 0.4 at pH 5 by circular dichroism; format: nucleic-acid assay
Caco-2 [11] = experiment: Cytotoxicity against human Caco-2 cells at 100 uM after 72 hrs by MTT assay; format: functional, cell-based
MIA PaCa-2 [12] = experiment: Cytotoxicity against human MIAPaCa2 cells after 72 hrs by MTT assay; format: functional, cell-based
Caco-2 [13] = experiment: Cytotoxicity against human Caco-2 cells at 10 to 100 uM after 72 hrs by MTT assay; format: functional, cell-based
MIA PaCa-2 [14] = experiment: Cytotoxicity against human MIAPaCa2 cells at 10 to 100 uM after 72 hrs by MTT assay; format: functional, cell-based
HEp-2 = experiment: Cytotoxicity against human Hep2 cells at 10 to 100 uM after 72 hrs by MTT assay; format: functional, cell-based
HeLa [15] = experiment: Cytotoxicity against human HeLa cells at 10 to 100 uM after 72 hrs by MTT assay; format: functional, cell-based
HT-29 [16] = experiment: Cytotoxicity against human HT-29 cells at 10 to 100 uM after 72 hrs by MTT assay; format: functional, cell-based
Caco-2 [17] = experiment: Cytotoxicity against human Caco-2 cells at 0.1 to 100 uM after 72 hrs by MTT assay; format: functional, cell-based
MIA PaCa-2 [18] = experiment: Cytotoxicity against human MIAPaCa2 cells at 0.1 to 100 uM after 72 hrs by MTT assay; format: functional, cell-based
HT-29 [19] = experiment: Cytotoxicity against human HT-29 cells at 0.1 to 100 uM after 72 hrs by MTT assay; format: functional, cell-based
HeLa [20] = experiment: Drug uptake in human HeLa cells at 1 mM after 10 mins using DAPI staining by fluorescence microscopy analysis; format: ADME, cell-based; settings: 1000 µM
MIA PaCa-2 [21] = experiment: Drug uptake in human MIAPaCa2 cells at 1 mM after 10 mins using DAPI staining by fluorescence microscopy analysis; format: ADME, cell-based; settings: mia paca-2, 10 min, 1000 µM
Nucleic Acid [22] = experiment: Binding affinity to UMP in sodium cacodylate buffer at pH 7 by fluorescence titration assay relative to control; format: nucleic-acid assay
Nucleic Acid [23] = experiment: Binding affinity to […] assessed as melting temperature at compound to DNA molar ratio of 0.2 at pH 5 by thermal denaturation assay; format: nucleic-acid assay
Nucleic Acid [24] = experiment: Binding affinity to poly A-poly U RNA assessed as melting temperature at compound to DNA molar ratio of 0.2 at pH 5 by thermal denaturation assay; format: nucleic-acid assay
Calf thymus DNA [25] = experiment: Binding affinity to calf thymus DNA assessed as melting temperature at compound to DNA molar ratio of 0.2 at pH 7 by thermal denaturation assay; format: nucleic-acid assay; settings: Bos taurus
Nucleic Acid [26] = experiment: Binding affinity to poly A-poly U RNA assessed as melting temperature at compound to DNA molar ratio of 0.3 at pH 7 by thermal denaturation assay; format: nucleic-acid assay
Nucleic Acid [27] = experiment: Binding affinity to […] in citric acid buffer at pH 5 by UV-v titration assay; format: nucleic-acid assay
Nucleic Acid [28] = experiment: Binding affinity to poly G-poly C RNA in sodium cacodylate buffer at pH 7 by UV-v titration assay; format: nucleic-acid assay
Nucleic Acid [29] = experiment: Binding affinity to poly A-poly U RNA assessed as change in melting temperature at compound to DNA molar ratio of 0.3 at pH 5 by thermal denaturation assay; format: nucleic-acid assay
Nucleic Acid [30] = experiment: Binding affinity to poly A-poly U RNA assessed as melting temperature at compound to DNA molar ratio of 0.3 at pH 5 by thermal denaturation assay; format: nucleic-acid assay
Nucleic Acid [31] = experiment: Binding affinity to poly A-poly U RNA assessed as biphasic transitions of change in melting temperature at compound to DNA molar ratio of 0.3 at pH 5 by thermal denaturation assay; format: nucleic-acid assay
Nucleic Acid [32] = experiment: Binding affinity to poly A-poly U RNA assessed as biphasic transitions of melting temperature at compound to DNA molar ratio of 0.3 at pH 5 by thermal denaturation assay; format: nucleic-acid assay
Nucleic Acid [33] = experiment: Binding affinity to poly A-poly U RNA in sodium cacodylate buffer at pH 7 by UV-v titration assay; format: nucleic-acid assay
Calf thymus DNA [34] = experiment: Binding affinity to calf thymus DNA at compound to DNA molar ratio of 0.1 to 0.5 at pH 7 by circular dichroism; format: nucleic-acid assay; settings: Bos taurus

RFU (Calf thymus DNA [1]) | log Ks (Nucleic Acid [2]) | log Ks (Calf thymus DNA [3]) | log Ks (Nucleic Acid [4]) | ΔTm (Calf thymus DNA [6]) | ΔTm (Calf thymus DNA [7]) | ΔTm (Calf thymus DNA [8]) | ΔTm (Nucleic Acid [9]) | Activity (Nucleic Acid [10]) | RFU (Nucleic Acid [22]) | Tm (Nucleic Acid [23]) | Tm (Nucleic Acid [24]) | Tm (Calf thymus DNA [25]) | Tm (Nucleic Acid [26]) | log Ks (Nucleic Acid [28]) | SMILES | Activity (Caco-2 [11]) | Activity (MIA PaCa-2 [12]) | Activity (Caco-2 [17]) | Activity (MIA PaCa-2 [18]) | Activity (HT-29 [19]) | other results
2.7 | 6.2 | 5.4 | 4.5 | 14 °C | 15.7 °C | 3.9 °C | 0 °C | Active | 3.5 | 59.7 °C | 83 °C | 83.2 °C | 51.5 °C | – | Cc1c2cc(NC(=O)NCCCCCCNC(=O)Nc3ccc4c(c3)c(C)[n+](C)c3ccccc43)ccc2c2ccccc2[n+]1C.O=S(=O)([O-])O.O=S(=O)([O-])O | Active | Dose-dependent effect | Active | Active | Active | log Ks (Nucleic Acid [5]): 5.1; Activity (Caco-2 [13]): inactive; Activity (MIA PaCa-2 [14]): inactive; Activity (HEp-2): inactive; Activity (HeLa [15]): inactive; Activity (HT-29 [16]): inactive; Drug uptake (HeLa [20]): Active; Drug uptake (MIA PaCa-2 [21]): Active
2.6 | 5.4 | 6 | – | 12.1 °C | 15 °C | 2.4 °C | 0 °C | Active | 62.5 | 59.4 °C | 84.1 °C | 81.7 °C | 51.6 °C | 5.2 | Cc1c2cc(NC(=O)NCCNC(=O)Nc3ccc4c(c3)c(C)[n+](C)c3ccccc43)ccc2c2ccccc2[n+]1C.O=S(=O)([O-])O.O=S(=O)([O-])O | inactive | Dose-dependent effect | Active | Active | Active | log Ks (Nucleic Acid [27]): 5.2; ΔTm (Nucleic Acid [29]): 1.9 °C; Tm (Nucleic Acid [30]): 83.8 °C; ΔTm (Nucleic Acid [31]): -0.4 °C; Tm (Nucleic Acid [32]): 31.1 °C
0.3 | 5.4 | – | 5.4 | 13.2 °C | 13.4 °C | 4.9 °C | 2.1 °C | – | 1.02 | 57.5 °C | 82.9 °C | 84.2 °C | 53.6 °C | 5.8 | Cc1c2cc(NC(=O)NCCCCCCCCCNC(=O)Nc3ccc4c(c3)c(C)[n+](C)c3ccccc43)ccc2c2ccccc2[n+]1C.O=S(=O)([O-])O.O=S(=O)([O-])O | inactive | Dose-dependent effect | inactive | inactive | inactive | log Ks (Nucleic Acid [33]): 5.1; ΔTm (Nucleic Acid [29]): 1.9 °C; Activity (Calf thymus DNA [34]): Active; Tm (Nucleic Acid [30]): 82.6 °C; ΔTm (Nucleic Acid [31]): -1.6 °C; Tm (Nucleic Acid [32]): 31.1 °C
